# Measurements published in ChEMBL document CHEMBL2440076, “New triarylpyrazoles as broad-spectrum anticancer agents: design, synthesis, and biological evaluation” (Eur J Med Chem, 2013).
# Legend:
# Format in all cases: functional
# MDA-MB-231 = assay: Growth inhibition of human MDA-MB-231 cells assessed as cell growth at 5X10'-7 M after 48 hrs by sulforhodamine B assay; settings: MDA-MB-231, 48 h, read-out: Activity
# KM12 [1] = assay: Growth inhibition of human KM12 cells assessed as cell growth at 5X10'-6 M after 48 hrs by sulforhodamine B assay; settings: KM12, 48 h, read-out: Activity
# HCT-15 = assay: Growth inhibition of human HCT15 cells assessed as cell growth at 5X10'-7 M after 48 hrs by sulforhodamine B assay; settings: HCT-15, 48 h, read-out: Activity
# IGROV-1 [2] = assay: Growth inhibition of human IGROV1 cells assessed as cell growth at 5X10'-5 M after 48 hrs by sulforhodamine B assay; settings: IGROV-1, 48 h, read-out: Activity
# [3] = Growth inhibition of human HCC2998 cells assessed as cell growth at 5X10'-7 M after 48 hrs by sulforhodamine B assay; settings: HCC 2998, 48 h, read-out: Activity
# LOX IMVI = assay: Growth inhibition of human LOXIMVI cells assessed as cell growth at 5X10'-9 M after 48 hrs by sulforhodamine B assay; settings: read-out: Activity
# SF-295 = assay: Growth inhibition of human SF295 cells assessed as cell growth at 5X10'-9 M after 48 hrs by sulforhodamine B assay; settings: SF-295, 48 h, read-out: Activity
# UACC-257 [4] = assay: Growth inhibition of human UACC257 cells assessed as cell growth at 5X10'-6 M after 48 hrs by sulforhodamine B assay; settings: UACC-257, 48 h, read-out: Activity
# UACC-257 [5] = assay: Growth inhibition of human UACC257 cells assessed as cell growth at 5X10'-7 M after 48 hrs by sulforhodamine B assay; settings: UACC-257, 48 h, read-out: Activity
# U-251 = assay: Growth inhibition of human U251 cells assessed as cell growth at 5X10'-8 M after 48 hrs by sulforhodamine B assay; settings: U-251, 48 h, read-out: Activity
# SR = assay: Growth inhibition of human SR cells assessed as cell growth at 5X10'-9 M after 48 hrs by sulforhodamine B assay; settings: read-out: Activity
# MDA-MB-468 = assay: Growth inhibition of human MDA-MB-468 cells assessed as cell growth at 5X10'-7 M after 48 hrs by sulforhodamine B assay; settings: MDA-MB-468, 48 h, read-out: Activity
# 786-0 [6] = assay: Growth inhibition of human 786-0 cells assessed as cell growth at 5X10'-9 M after 48 hrs by sulforhodamine B assay; settings: 786-0, 48 h, read-out: Activity
# BT-549 = assay: Growth inhibition of human BT549 cells assessed as cell growth at 5X10'-6 M after 48 hrs by sulforhodamine B assay; settings: BT-549, 48 h, read-out: Activity
# MOLT-4 = assay: Growth inhibition of human MOLT4 cells assessed as cell growth at 5X10'-6 M after 48 hrs by sulforhodamine B assay; settings: MOLT-4, 48 h, read-out: Activity
# OVCAR-4 = assay: Growth inhibition of human OVCAR4 cells assessed as cell growth at 5X10'-9 M after 48 hrs by sulforhodamine B assay; settings: OVCAR-4, 48 h, read-out: Activity
# HOP-92 = assay: Growth inhibition of human HOP92 cells assessed as cell growth at 5X10'-6 M after 48 hrs by sulforhodamine B assay; settings: HOP-92, 48 h, read-out: Activity
# NCI-H460 = assay: Growth inhibition of human NCI-H460 cells assessed as cell growth at 5X10'-6 M after 48 hrs by sulforhodamine B assay; settings: NCI-H460, 48 h, read-out: Activity
# CAKI-1 = assay: Growth inhibition of human CAKI-1 cells assessed as cell growth at 5X10'-7 M after 48 hrs by sulforhodamine B assay; settings: CAKI-1, 48 h, read-out: Activity
# SNB-19 = assay: Growth inhibition of human SNB19 cells assessed as cell growth at 5X10'-5 M after 48 hrs by sulforhodamine B assay; settings: SNB-19, 48 h, read-out: Activity
# OVCAR-5 = assay: Growth inhibition of human OVCAR5 cells assessed as cell growth at 5X10'-9 M after 48 hrs by sulforhodamine B assay; settings: OVCAR-5, 48 h, read-out: Activity
# RXF 393 = assay: Growth inhibition of human RXF393 cells assessed as cell growth at 5X10'-8 M after 48 hrs by sulforhodamine B assay; settings: RXF 393, 48 h, read-out: Activity
# IGROV-1 [7] = assay: Growth inhibition of human IGROV1 cells assessed as cell growth at 5X10'-7 M after 48 hrs by sulforhodamine B assay; settings: IGROV-1, 48 h, read-out: Activity
# SK-MEL-5 [8] = assay: Growth inhibition of human SK-MEL-5 cells assessed as cell growth at 5X10'-7 M after 48 hrs by sulforhodamine B assay; settings: SK-MEL-5, 48 h, read-out: Activity
# KM12 [9] = assay: Growth inhibition of human KM12 cells assessed as cell growth at 5X10'-9 M after 48 hrs by sulforhodamine B assay; settings: KM12, 48 h, read-out: Activity
# SF-539 = assay: Growth inhibition of human SF539 cells assessed as cell growth at 5X10'-5 M after 48 hrs by sulforhodamine B assay; settings: SF-539, 48 h, read-out: Activity
# SK-OV-3 = assay: Growth inhibition of human SKOV3 cells assessed as cell growth at 5X10'-5 M after 48 hrs by sulforhodamine B assay; settings: SK-OV-3, 48 h, read-out: Activity
# MDA-MB-435 = assay: Growth inhibition of human MDA-MB-435 cells assessed as cell growth at 5X10'-7 M after 48 hrs by sulforhodamine B assay; settings: MDA-MB-435, 48 h, read-out: Activity
# 786-0 [10] = assay: Growth inhibition of human 786-0 cells assessed as cell growth at 5X10'-6 M after 48 hrs by sulforhodamine B assay; settings: 786-0, 48 h, read-out: Activity
# SF-268 = assay: Growth inhibition of human SF268 cells assessed as cell growth at 5X10'-7 M after 48 hrs by sulforhodamine B assay; settings: SF-268, 48 h, read-out: Activity
# DU-145 = assay: Growth inhibition of human DU145 cells assessed as cell growth at 5X10'-5 M after 48 hrs by sulforhodamine B assay; settings: DU-145, 48 h, read-out: Activity
# SK-MEL-5 [11] = assay: Growth inhibition of human SK-MEL-5 cells assessed as cell growth at 5X10'-5 M after 48 hrs by sulforhodamine B assay; settings: SK-MEL-5, 48 h, read-out: Activity
# HT-29 = assay: Growth inhibition of human HT-29 cells assessed as cell growth at 5X10'-9 M after 48 hrs by sulforhodamine B assay; settings: HT-29, 48 h, read-out: Activity
# SW-620 = assay: Growth inhibition of human SW620 cells assessed as cell growth at 5X10'-9 M after 48 hrs by sulforhodamine B assay; settings: SW-620, 48 h, read-out: Activity
# A549 = assay: Growth inhibition of human A549/ATCC cells assessed as cell growth at 5X10'-8 M after 48 hrs by sulforhodamine B assay; settings: A549, 48 h, read-out: Activity
structure (smiles),measurement,setting,value
O=C(Nc1cccc(-n2cc(-c3ccncc3)c(-c3ccc(Cl)c(O)c3)n2)c1)c1ccc(N2CCOCC2)c(C(F)(F)F)c1,growth at 0.5 µM,MDA-MB-231,67%
same,growth at 5 µM,KM12 [1],25%
same,growth at 0.5 µM,HCT-15,91%
same,growth at 50 µM,IGROV-1 [2],4%
same,growth at 0.5 µM,[3],108%
same,growth at 0.005 µM,LOX IMVI,95%
same,growth at 0.005 µM,SF-295,93%
same,growth at 5 µM,UACC-257 [4],57%
same,growth at 0.5 µM,UACC-257 [5],90%
same,growth at 0.05 µM,U-251,101%
same,growth at 0.005 µM,SR,94%
same,growth at 0.5 µM,MDA-MB-468,92%
same,growth at 0.005 µM,786-0 [6],94%
same,growth at 5 µM,BT-549,70%
same,growth at 5 µM,MOLT-4,32%
same,growth at 0.005 µM,OVCAR-4,93%
same,growth at 5 µM,HOP-92,-7%
same,growth at 5 µM,NCI-H460,9%
same,growth at 0.5 µM,CAKI-1,98%
same,growth at 50 µM,SNB-19,16%
same,growth at 0.005 µM,OVCAR-5,98%
same,growth at 0.05 µM,RXF 393,101%
same,growth at 0.5 µM,IGROV-1 [7],112%
same,growth at 0.5 µM,SK-MEL-5 [8],93%
same,growth at 0.005 µM,KM12 [9],94%
same,growth at 50 µM,SF-539,-18%
same,growth at 50 µM,SK-OV-3,36%
same,growth at 0.5 µM,MDA-MB-435,85%
same,growth at 5 µM,786-0 [10],35%
same,growth at 0.5 µM,SF-268,104%
same,growth at 50 µM,DU-145,26%
same,growth at 50 µM,SK-MEL-5 [11],-70%
same,growth at 0.005 µM,HT-29,101%
same,growth at 0.005 µM,SW-620,102%
same,growth at 0.05 µM,A549,101%
